Measurements as given in ChEMBL document CHEMBL5143673, “The evaluation of N-propargylamine-2-aminotetralin as an inhibitor of monoamine oxidase” (Bioorg Med Chem Lett, 2022).

How the values were obtained:
[1] = biological target: T1, Amine oxidase [flavin-containing] A (Rattus norvegicus, UniProt P21396); test: Inhibition of rat brain MAOA using kynuramine substrate by fluorescence spectrophotometry; assay type: toxicity
T1 sequence (P21396 whole entry): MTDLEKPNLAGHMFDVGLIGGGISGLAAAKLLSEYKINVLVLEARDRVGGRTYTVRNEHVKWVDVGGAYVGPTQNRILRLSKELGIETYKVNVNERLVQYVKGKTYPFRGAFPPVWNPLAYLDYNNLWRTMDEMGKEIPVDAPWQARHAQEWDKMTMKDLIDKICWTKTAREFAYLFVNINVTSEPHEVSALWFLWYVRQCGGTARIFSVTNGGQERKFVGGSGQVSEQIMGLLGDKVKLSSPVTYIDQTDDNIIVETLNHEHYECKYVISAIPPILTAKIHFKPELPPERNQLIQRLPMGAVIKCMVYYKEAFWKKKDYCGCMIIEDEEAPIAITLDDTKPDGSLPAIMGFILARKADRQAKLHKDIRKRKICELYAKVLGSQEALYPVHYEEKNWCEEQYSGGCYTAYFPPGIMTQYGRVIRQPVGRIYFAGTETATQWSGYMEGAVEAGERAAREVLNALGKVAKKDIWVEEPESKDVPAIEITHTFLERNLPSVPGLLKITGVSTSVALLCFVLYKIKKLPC

[2] = biological target: T2, Amine oxidase [flavin-containing] B (Rattus norvegicus, UniProt P19643); test: Inhibition of rat brain MAOB using kynuramine substrate by fluorescence spectrophotometry
T2 sequence (P19643 whole entry): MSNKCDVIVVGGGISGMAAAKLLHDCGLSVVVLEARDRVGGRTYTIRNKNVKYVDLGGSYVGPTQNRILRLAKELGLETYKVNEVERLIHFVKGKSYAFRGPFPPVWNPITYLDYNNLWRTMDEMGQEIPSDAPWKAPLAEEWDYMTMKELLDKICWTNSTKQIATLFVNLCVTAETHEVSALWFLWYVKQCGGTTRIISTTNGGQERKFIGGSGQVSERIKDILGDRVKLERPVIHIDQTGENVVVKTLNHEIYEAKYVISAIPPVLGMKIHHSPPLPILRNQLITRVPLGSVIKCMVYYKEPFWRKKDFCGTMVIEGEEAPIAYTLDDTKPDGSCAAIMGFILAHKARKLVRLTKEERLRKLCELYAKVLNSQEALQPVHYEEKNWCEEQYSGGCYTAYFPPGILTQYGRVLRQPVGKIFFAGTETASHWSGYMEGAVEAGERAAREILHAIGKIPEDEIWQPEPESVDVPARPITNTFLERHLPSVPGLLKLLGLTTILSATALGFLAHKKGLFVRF

Rattus norvegicus = species: Rattus norvegicus; test: Selectivity index, ratio of IC50 for inhibition of rat brain MAOA to IC50 for rat brain MAOB
Homo sapiens = species: Homo sapiens; test: Selectivity index, ratio of IC50 for inhibition of human recombinant MAOA to IC50 for human recombinant MAOB
[3] = biological target: T3, Amine oxidase [flavin-containing] B (Homo sapiens, UniProt P27338); test: Inhibition of human recombinant MAOB assessed as enzyme activity recovery level at 4 times IC50 using kynuramine substrate incubated for 15 mins followed by without dialysis by fluorescence spectrophotometry; design: scale not given: the % may be the effect or the level left; details: 0.25 h
T3 sequence (P27338 whole entry): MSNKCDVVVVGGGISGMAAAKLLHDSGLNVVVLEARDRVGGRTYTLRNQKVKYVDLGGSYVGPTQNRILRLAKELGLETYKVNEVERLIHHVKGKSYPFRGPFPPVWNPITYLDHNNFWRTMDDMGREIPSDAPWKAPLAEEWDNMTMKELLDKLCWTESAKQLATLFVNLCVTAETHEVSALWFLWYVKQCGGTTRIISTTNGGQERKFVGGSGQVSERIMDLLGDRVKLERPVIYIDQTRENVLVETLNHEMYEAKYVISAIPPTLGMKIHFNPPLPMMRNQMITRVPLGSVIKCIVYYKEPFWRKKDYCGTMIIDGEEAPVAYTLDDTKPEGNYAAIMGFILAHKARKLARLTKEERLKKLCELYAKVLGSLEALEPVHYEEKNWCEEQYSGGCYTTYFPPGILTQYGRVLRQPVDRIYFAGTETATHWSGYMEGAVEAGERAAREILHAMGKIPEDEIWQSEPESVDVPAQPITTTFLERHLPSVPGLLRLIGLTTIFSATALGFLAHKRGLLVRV

[4] = biological target: T3, Amine oxidase [flavin-containing] B; test: Inhibition of human recombinant MAOB using kynuramine substrate incubated for 20 mins by fluorescence spectrophotometry
MAO-A [5] = biological target: T4, MAO-A (Homo sapiens, UniProt P21397); test: Inhibition of human recombinant MAOA assessed as enzyme activity recovery level at 4 times IC50 using kynuramine substrate incubated for 15 mins followed by without dialysis by fluorescence spectrophotometry; assay type: toxicity; design: scale not given: the % may be the effect or the level left; details: probe kynuramine, read-out: Activity
T4 sequence (P21397 whole entry): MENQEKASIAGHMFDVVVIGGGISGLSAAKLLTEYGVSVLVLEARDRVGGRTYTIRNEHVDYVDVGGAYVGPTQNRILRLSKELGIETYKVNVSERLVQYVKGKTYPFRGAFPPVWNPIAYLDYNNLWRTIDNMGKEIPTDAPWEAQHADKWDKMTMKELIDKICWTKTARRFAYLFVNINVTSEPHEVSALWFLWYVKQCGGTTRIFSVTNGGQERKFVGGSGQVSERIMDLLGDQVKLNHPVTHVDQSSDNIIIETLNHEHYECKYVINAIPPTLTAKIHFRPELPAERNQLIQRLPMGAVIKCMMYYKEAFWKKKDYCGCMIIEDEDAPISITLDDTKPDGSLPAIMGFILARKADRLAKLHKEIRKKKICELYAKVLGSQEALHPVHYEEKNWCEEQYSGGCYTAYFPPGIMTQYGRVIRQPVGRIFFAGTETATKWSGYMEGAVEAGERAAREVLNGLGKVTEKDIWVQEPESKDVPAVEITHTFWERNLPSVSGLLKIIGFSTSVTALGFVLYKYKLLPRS

[6] = biological target: T3, Amine oxidase [flavin-containing] B; test: Time dependent inhibition of human recombinant MAOB at 0.25 to 1.25 uM using kynuramine substrate by fluorescence spectrophotometry based L-B plot analysis
[7] = biological target: T3, Amine oxidase [flavin-containing] B; test: Time dependent inhibition of human recombinant MAOB at […] using kynuramine substrate incubated for 5 to 35 mins by fluorescence spectrophotometry; details: TDE = time-dependent effect, time 5-35 min
[8] = biological target: T3, Amine oxidase [flavin-containing] B; test: Inhibition of human recombinant MAOB assessed as enzyme activity recovery level at 4 times IC50 using kynuramine substrate incubated for 15 mins followed by 24 hrs dialysis by fluorescence spectrophotometry; design: scale not given: the % may be the effect or the level left; details: 0.25 h
[9] = biological target: T3, Amine oxidase [flavin-containing] B; test: Time dependent inhibition of human recombinant MAOB at 0.25 to 1.25 uM using kynuramine substrate by fluorescence spectrophotometry based graphing of slopes of Lineweaver-Burk plots versus inhibitor concentration
[10] = biological target: T5, Amine oxidase [flavin-containing] A (Homo sapiens, UniProt P21397); test: Inhibition of human recombinant MAOA using kynuramine substrate incubated for 20 mins by fluorescence spectrophotometry; assay type: toxicity
T5 sequence (P21397 whole entry): T4 sequence (P21397 whole entry)

MAO-A [11] = biological target: T4, MAO-A; test: Inhibition of human recombinant MAOA assessed as enzyme activity recovery level at 4 times IC50 using kynuramine substrate incubated for 15 mins followed by 24 hrs dialysis by fluorescence spectrophotometry; assay type: toxicity; design: scale not given: the % may be the effect or the level left; details: probe kynuramine, read-out: Activity
MAO-A [12] = biological target: T4, MAO-A; test: Resistance index, ratio of IC50 for toloxatone to IC50 for test compound for inhibition of human recombinant MAOA using kynuramine substrate incubated for 20 mins by fluorescence spectrophotometry; assay type: toxicity; details: probe kynuramine, read-out: Ratio IC50
MAO-A [13] = biological target: T4, MAO-A; test: Inhibition of human recombinant MAOA assessed as enzyme activity recovery level using kynuramine substrate incubated for 15 mins followed by 24 hrs dialysis by fluorescence spectrophotometry; assay type: toxicity; design: scale not given: the % may be the effect or the level left; details: probe kynuramine, read-out: Activity

With `C#CCN(C)C1CCc2ccccc2C1` (single isomer, unassigned; (+)) [listing 1 of 2 here] the IC50 [1] was 140 nM and the IC50 [2] was 16 nM.

`C#CCN(C)C1CCc2ccccc2C1` (single isomer, unassigned; (-)) [listing 1 of 2 here] gave a Ratio IC50 (Rattus norvegicus) of 0.5.

`C#CCN(C)C1CCc2ccccc2C1` (single isomer, unassigned; (-)) [listing 2 of 2 here] showed an IC50 [1] of 46 nM and an IC50 [2] of 88 nM.

For `C#CCN(C)C1CCc2ccccc2C1` (racemic) [listing 1 of 2 here], the IC50 [1] was 51 nM and the IC50 [2] was 41 nM.

`C#CCN(C)C1CCc2ccccc2C1` (single isomer, unassigned; (+)) [listing 2 of 2 here] gave a Ratio IC50 (Rattus norvegicus) of 8.8.

`C#CCNC1CCc2ccccc2C1` (racemic) was tested, and the Ratio IC50 (Homo sapiens) was 0.05, the Activity [3] was 0.3% and the IC50 [4] was 14600 nM. For the same compound, the activity at 0.25 h (MAO-A [5]) was 46%, the Ki [6] was 460 nM and the TDI [7] was “Tde”. The Activity [8] was 7.5%, the Ki [9] was 435 nM and the IC50 [10] was 721 nM. It also gave an activity at 0.25 h (MAO-A [11]) of 102% and a selectivity ratio at 20 min (MAO-A [12]) of 5.

`C#CCN(C)Cc1ccccc1` [PARGYLINE] was tested, and the activity at 0.25 h (MAO-A [13]) was 0.9%.

Work on `C#CCN(C)C1CCc2ccccc2C1` (racemic) [listing 2 of 2 here] yielded a Ratio IC50 (Rattus norvegicus) of 1.2.
